Measurements published in PubChem BioAssay AID1053172 (The Scripps Research Institute Molecular Screening Center, 2014).
Calls of active or inactive are those of the source. How the calls were made is not given here.

Molecular target: HIV-1 integrase / human LEDGF/p75 complex
Assay: inhibitors of HIV-1 IN-LEDGF/p75 DNA integration, dose response, biochemical, TR-FRET (AID 1053172)

Row | Compound | IC50
1 | CCN(CC)CCCNc1ccc2ncn3c4ccc(O)cc4c(=O)c1c23 | > 36.5 µM (inactive)
2 | O=C(CSc1nc2ccccc2o1)N/N=C/c1ccc(O)c(O)c1 | 1.93 µM
3 | CC(C(=O)O)N1C(=O)/C(=C/C=C/c2ccco2)SC1=S (stereo not drawn) | 0.452 µM
